From ChEMBL document CHEMBL1909623, “Synthesis and preliminary evaluation of amiloride analogs as inhibitors of the urokinase-type plasminogen activator (uPA)” (Bioorg Med Chem Lett, 2011)

biological target: Sodium/hydrogen exchanger 1 (Homo sapiens) (UniProt P19634); assay: Inhibition of NHE1
Sequence (P19634 whole entry): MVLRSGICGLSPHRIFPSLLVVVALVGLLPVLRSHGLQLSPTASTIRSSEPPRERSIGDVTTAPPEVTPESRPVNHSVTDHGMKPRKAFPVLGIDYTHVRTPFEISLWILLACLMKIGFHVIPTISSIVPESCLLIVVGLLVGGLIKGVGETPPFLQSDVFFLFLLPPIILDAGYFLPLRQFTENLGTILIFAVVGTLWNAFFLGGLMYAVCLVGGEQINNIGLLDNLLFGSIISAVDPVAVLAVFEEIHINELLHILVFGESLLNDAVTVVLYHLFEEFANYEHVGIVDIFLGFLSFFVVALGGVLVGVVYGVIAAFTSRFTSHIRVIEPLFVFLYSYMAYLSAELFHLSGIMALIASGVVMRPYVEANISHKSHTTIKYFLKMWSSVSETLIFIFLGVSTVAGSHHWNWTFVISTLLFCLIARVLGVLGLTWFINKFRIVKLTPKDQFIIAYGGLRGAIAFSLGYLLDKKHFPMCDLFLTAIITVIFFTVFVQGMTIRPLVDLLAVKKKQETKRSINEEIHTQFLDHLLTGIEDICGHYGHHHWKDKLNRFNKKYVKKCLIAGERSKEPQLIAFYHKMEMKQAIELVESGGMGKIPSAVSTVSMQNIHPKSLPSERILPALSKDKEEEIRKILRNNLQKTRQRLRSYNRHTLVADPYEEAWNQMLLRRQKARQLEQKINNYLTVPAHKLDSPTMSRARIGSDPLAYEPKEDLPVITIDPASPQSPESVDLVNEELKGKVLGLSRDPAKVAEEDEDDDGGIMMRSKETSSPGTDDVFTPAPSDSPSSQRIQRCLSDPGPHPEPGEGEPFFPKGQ

| SMILES | K0.5 [µM] |
| --- | --- |
| N=C(N)NC(=O)c1nc(Cl)c(N)nc1N | 7 |

biological target: T1, Urokinase-type plasminogen activator (Homo sapiens, UniProt P00749); assay: Inhibition of urokinase-type plasminogen activator

| IC50 [µM] | SMILES |
| --- | --- |
| 26 | COC(=O)CNc1nc(N)c(C(=O)NC(=N)N)nc1Cl |
| 15 | CN(CCNc1nc(N)c(C(=O)NC(=N)N)nc1Cl)Cc1ccccc1 |
| 10 | N=C(N)NC(=O)c1nc(-c2ccccc2)c(N)nc1N |
| > 1000 | N=C(N)NC(=O)c1c[nH]cn1 |
| > 1000 | N=C(N)NC(=O)c1nc(Cl)cnc1N |
| > 1000 | Nc1noc(-c2nc(Cl)c(N)nc2N)n1 |
| 44 | CCOP(=O)(CCNc1nc(N)c(C(=O)NC(=N)N)nc1Cl)OCC |
| > 1000 | N=C(N)NC(=O)c1cnc(Cl)c(Cl)c1 |
| 28 | N=C(N)NC(=O)c1nc(Cl)c(NCCNCc2ccccc2)nc1N |
| 30 | N=C(N)NC(=O)c1nc(Cl)c(NCC[n+]2ccccc2)nc1N |
| 16 | N=C(N)NC(=O)c1nc(Cl)c(NCCc2ccccc2)nc1N |
| 110 | N=C(N)NC(=O)c1nc(Cl)c(NCC(=O)O)nc1N |
| 17 | N=C(N)NC(=O)c1nc(Cl)c(NCc2cccnc2)nc1N |
| 25 | CCOC(=O)CCNc1nc(N)c(C(=O)NC(=N)N)nc1Cl |
| > 1000 | N=C(N)NC(=O)c1cccnc1 [AMINO(NICOTINAMIDO)METHANIMINIUM CHLORIDE] |
| 19 | N=C(N)NC(=O)c1ncc(N)nc1N |
| > 1000 | N=C(N)NC(=O)c1nc(Cl)c(NCP(=O)(O)O)nc1N |
| > 1000 | N=C(N)NC(=O)c1cnc(N)c(Br)n1 |
| 6 | N=C(N)NC(=O)c1nc(Cl)c(NCc2ccncc2)nc1N |
| 5 | N=C(N)NC(=O)c1nc(Br)c(N)nc1N |
| 14 | CCN(CC)CCNc1nc(N)c(C(=O)NC(=N)N)nc1Cl |
| 222 | COc1cc(N)c(Cl)cc1C(=O)NC(=N)N |
| 15 | N=C(N)NC(=O)c1nc(Cl)c(NCCS(=O)(=O)Cc2ccccc2)nc1N |

| IC50 [µM] | SMILES |
| --- | --- |
| > 1000 | N=C(N)NC(=O)c1ccccc1 [AMINO(BENZAMIDO)METHANIMINIUM CHLORIDE] |
| 102 | N=C(N)NC(=O)c1nc(Cl)c(NCCC(=O)O)nc1N |
| 2 | N=C(N)NC(=O)c1nc(I)c(N)nc1N |
| > 1000 | N=C(N)NC(=O)c1nc(Cl)c(NCCP(=O)(O)O)nc1N |
| 50 | N#CCNc1nc(N)c(C(=O)NC(=N)N)nc1Cl |
| 8 | N=C(N)NC(=O)c1nc(Cl)c(NCc2ccccc2)nc1N |
| 38 | N=C(N)NC(=O)c1nc(Cl)c(NCc2ccccn2)nc1N |
| 177 | N=C(N)NC(=O)c1nc(Cl)c(NCc2nnn[nH]2)nc1N |
| 43 | N=C(N)NC(=O)c1ncc(NCc2ccccc2)nc1N |
| > 1000 | NNC(=O)c1nc(Cl)c(N)nc1N |
| 120 | N=C(N)NC(=O)c1ncc(NCCc2ccccc2)nc1N |
| 2 | N=C(N)NC(=O)c1nc(C#Cc2ccccc2)c(N)nc1N |
| > 1000 | N=C(N)NC(=O)c1ccccn1 [AMINO(PICOLINAMIDO)METHANIMINIUM CHLORIDE] |
| 6 | N=C(N)NC(=O)c1nc(Cl)c(NCc2ccc(F)cc2)nc1N |
| > 1000 | CCOP(=O)(O)CCNc1nc(N)c(C(=O)NC(=N)N)nc1Cl |
| > 1000 | N=C(N)NC(=O)c1cnccn1 |
| 6 | CCN(c1nc(N)c(C(=O)NC(=N)N)nc1Cl)C(C)C |
| > 1000 | N=C(N)NC(=O)c1nc(Cl)c(NCCS(=O)(=O)O)nc1N |
| 35 | Cc1ccc(S(=O)(=O)NCCNc2nc(N)c(C(=O)NC(=N)N)nc2Cl)cc1 |
| 37 | CCOP(=O)(CNc1nc(N)c(C(=O)NC(=N)N)nc1Cl)OCC |
| 21 | N=C(N)NC(=O)c1nc(Cl)c(NCCSCc2ccccc2)nc1N |
| 16 | N#CCCNc1nc(N)c(C(=O)NC(=N)N)nc1Cl |
| 61 | N=C(N)NC(=O)c1nc(Cl)c(NCCc2nnn[nH]2)nc1N |

| SMILES | IC50 [µM] |
| --- | --- |
| CCOP(=O)(NNc1nc(N)c(C(=O)NC(=N)N)nc1Cl)OCC | 10 |
| N=C(N)NC(=O)c1nc(Cl)c(N2CCCCCC2)nc1N | 6 |

biological target: Sodium/hydrogen exchanger 1 (Homo sapiens) (UniProt P19634); assay: Ratio of compound K0.5 to amiloride K0.5 for NHE1

| Ratio | SMILES |
| --- | --- |
| 313 | CCN(c1nc(N)c(C(=O)NC(=N)N)nc1I)C(C)C |
| 566 | N=C(N)NC(=O)c1nc(Br)c(N2CCCCCC2)nc1N |
| 140 | CCN(c1nc(N)c(C(=O)NC(=N)N)nc1Cl)C(C)C |

| SMILES | Ratio |
| --- | --- |
| N=C(N)NC(=O)c1nc(Cl)c(N2CCCCCC2)nc1N | 524 |

biological target: T1, Urokinase-type plasminogen activator; assay: Ratio of compound K0.5 to amiloride K0.5 for urokinase-type plasminogen activator

| SMILES | Ratio IC50 |
| --- | --- |
| N=C(N)NC(=O)c1nc(Cl)c(N2CCCCCC2)nc1N | 2 |
| CCN(c1nc(N)c(C(=O)NC(=N)N)nc1Cl)C(C)C | 2 |
